Assay results taken from US20200291018A1, “TAM KINASE INHIBITORS” (SYROS PHARMACEUTICALS, INC., priority 2017, published 2020).

Legend:
FLT3 = biological target: T1, FLT3 (Homo sapiens, UniProt P36888); experiment: TR-FRET kinase activity assay, FLT3; assay type: biochemical; conditions: ATP at Km, 60 minutes
T1 sequence (P36888 27-993): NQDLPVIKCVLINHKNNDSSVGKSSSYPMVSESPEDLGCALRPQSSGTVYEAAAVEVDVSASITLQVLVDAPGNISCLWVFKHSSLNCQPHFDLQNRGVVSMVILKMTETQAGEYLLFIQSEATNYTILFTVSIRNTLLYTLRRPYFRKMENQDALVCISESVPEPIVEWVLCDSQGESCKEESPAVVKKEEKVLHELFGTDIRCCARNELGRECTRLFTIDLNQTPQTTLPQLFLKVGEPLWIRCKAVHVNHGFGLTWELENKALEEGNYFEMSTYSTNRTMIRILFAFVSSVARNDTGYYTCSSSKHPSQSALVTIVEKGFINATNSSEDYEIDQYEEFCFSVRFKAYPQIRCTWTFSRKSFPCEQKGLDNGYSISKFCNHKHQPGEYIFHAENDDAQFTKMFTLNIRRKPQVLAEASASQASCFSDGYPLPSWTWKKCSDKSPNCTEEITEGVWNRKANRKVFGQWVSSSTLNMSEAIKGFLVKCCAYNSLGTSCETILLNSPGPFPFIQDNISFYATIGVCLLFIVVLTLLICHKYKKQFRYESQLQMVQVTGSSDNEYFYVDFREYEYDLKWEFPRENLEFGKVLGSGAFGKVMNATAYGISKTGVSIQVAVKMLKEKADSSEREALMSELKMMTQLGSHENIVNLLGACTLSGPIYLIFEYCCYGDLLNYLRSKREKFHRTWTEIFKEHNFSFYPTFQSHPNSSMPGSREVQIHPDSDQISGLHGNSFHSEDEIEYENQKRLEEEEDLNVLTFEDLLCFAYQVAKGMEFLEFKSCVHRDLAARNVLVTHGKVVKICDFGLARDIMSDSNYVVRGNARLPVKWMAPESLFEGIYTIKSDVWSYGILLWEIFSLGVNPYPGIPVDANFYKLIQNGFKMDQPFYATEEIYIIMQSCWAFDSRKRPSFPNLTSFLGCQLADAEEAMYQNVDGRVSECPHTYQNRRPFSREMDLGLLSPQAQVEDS
Outline: (§1)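 Enzyme, fluorescent-labeled peptide substrate and compound were mixed in 50 mM HEPES pH 7.5, 10 mM MgCl2, 1 mM EGTA, 0.01% Brij 35, 1 mM DTT at RT; ATP at each enzyme's Km started the reaction. After 60 min, EDTA quench and Eu-anti-phosphotyrosine-site antibody (30 min, dark); TR-FRET read, IC50 derived.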

MERTK = biological target: T2, MERTK (Homo sapiens, UniProt Q12866); experiment: TR-FRET kinase activity assay, MERTK; assay type: biochemical; conditions: for IC50: TR-FRET activity assay, ATP at Km, 60 minutes, read-out: Mer IC50; for Mer/Flt3 ratio (FLT3 IC50/Mer IC50): ratio calculated as FLT3 IC50/Mer IC50
T2 sequence (Q12866 21-999): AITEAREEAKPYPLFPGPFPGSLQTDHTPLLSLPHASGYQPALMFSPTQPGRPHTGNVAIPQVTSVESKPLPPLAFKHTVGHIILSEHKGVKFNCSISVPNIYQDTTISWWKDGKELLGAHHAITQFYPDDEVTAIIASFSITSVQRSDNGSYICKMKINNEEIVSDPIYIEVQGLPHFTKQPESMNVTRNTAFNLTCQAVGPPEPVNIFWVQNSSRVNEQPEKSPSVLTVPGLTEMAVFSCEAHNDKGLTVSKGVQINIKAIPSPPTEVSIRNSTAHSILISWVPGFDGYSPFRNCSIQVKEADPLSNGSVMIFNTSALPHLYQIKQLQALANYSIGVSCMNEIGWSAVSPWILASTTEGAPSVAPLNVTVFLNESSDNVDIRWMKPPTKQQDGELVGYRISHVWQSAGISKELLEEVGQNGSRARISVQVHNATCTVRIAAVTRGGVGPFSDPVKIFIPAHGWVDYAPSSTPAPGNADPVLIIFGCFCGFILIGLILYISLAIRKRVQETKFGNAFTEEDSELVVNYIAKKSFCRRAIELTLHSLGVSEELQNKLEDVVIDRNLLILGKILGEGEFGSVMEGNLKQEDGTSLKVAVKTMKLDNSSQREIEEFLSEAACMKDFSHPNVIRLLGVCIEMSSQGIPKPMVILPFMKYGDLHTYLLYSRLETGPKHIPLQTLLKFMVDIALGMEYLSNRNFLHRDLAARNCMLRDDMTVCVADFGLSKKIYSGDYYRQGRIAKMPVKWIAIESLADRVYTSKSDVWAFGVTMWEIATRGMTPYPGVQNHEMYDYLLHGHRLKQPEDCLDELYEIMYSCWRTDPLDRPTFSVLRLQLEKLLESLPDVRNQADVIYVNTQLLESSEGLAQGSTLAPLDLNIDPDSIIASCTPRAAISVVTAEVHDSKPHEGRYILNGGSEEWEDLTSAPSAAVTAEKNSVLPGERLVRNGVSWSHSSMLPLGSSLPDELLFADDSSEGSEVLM
Outline: as §1

| IC50 (FLT3) [nM] | IC50 (MERTK) [nM] | Mer/Flt3 ratio (FLT3 IC50/Mer IC50) (MERTK) | SMILES |
| --- | --- | --- | --- |
| 1000 to 10000 | ≤ 100 | +++ (a ratio of >100) | CC[C@H](C)Nc1ncc2c(=O)n([C@H]3CC[C@H](N(C)C)C3)cc([C@H]3CC[C@H](O)CC3)c2n1 [Compound 266] |
| 1000 to 10000 | ≤ 100 | +++ (a ratio of >100) | CCOc1ncc([C@H]2CC[C@H](O)CC2)c2nc(N[C@@H](C)COC)ncc12 [Compound 273] |
| 1000 to 10000 | ≤ 100 | +++ (a ratio of >100) | CCCCC[C@H](C)Nc1ncc2c(=O)n(C3CCOCC3)cc([C@H]3CC[C@H](O)CC3)c2n1 [Compound 108] |
| 100 to 1000 | ≤ 100 | ++ (a ratio of between 10 and 100) | CC[C@H](C)Nc1ncc2c(NC34CCC(O)(CC3)CC4)ncc([C@H]3CC[C@H](O)CC3)c2n1 [Compound 238] |
| 1000 to 10000 | ≤ 100 | +++ (a ratio of >100) | CC[C@H](C)Nc1ncc2c(OC3C[C@@H](C)O[C@@H](C)C3)ncc([C@H]3CC[C@H](O)CC3)c2n1 (stereo partly drawn) [Compound 275] |
| 1000 to 10000 | ≤ 100 | +++ (a ratio of >100) | CC[C@H](C)Nc1ncc2c(OC3CCN(C)CC3)ncc([C@H]3CC[C@H](O)CC3)c2n1 [Compound 239] |
| 100 to 1000 | ≤ 100 | +++ (a ratio of >100) | CCC[C@@H](C)Nc1ncc2c(OC3CCN(C)CC3)ncc([C@H]3CC[C@H](O)CC3)c2n1 [Compound 208] |
| 1000 to 10000 | ≤ 100 | +++ (a ratio of >100) | CC[C@H](C)Nc1ncc2c(C)ncc([C@H]3CC[C@H](O)CC3)c2n1 [Compound 255] |
| 100 to 1000 | ≤ 100 | ++ (a ratio of between 10 and 100) | O[C@H]1CC[C@H](c2cnc(OC3CCNCC3)c3cnc(Nc4ccccc4F)nc32)CC1 [Compound 262] |
| 1000 to 10000 | ≤ 100 | +++ (a ratio of >100) | CC[C@H](C)Nc1ncc2c(OCC34CCC(O)(CC3)CC4)ncc([C@H]3CC[C@H](O)CC3)c2n1 [Compound 256] |
| 1000 to 10000 | ≤ 100 | +++ (a ratio of >100) | CC[C@H](C)Nc1ncc2c(OC3CC(C)(C)NC(C)(C)C3)ncc([C@H]3CC[C@H](O)CC3)c2n1 [Compound 246] |
| 1000 to 10000 | 100 to 1000 | ++ (a ratio of between 10 and 100) | COC[C@H](C)Nc1ncc2c(OC3CCOCC3)ncc(C3=CCC4(CC3)OCCO4)c2n1 [Compound 242] |
| 1000 to 10000 | ≤ 100 | +++ (a ratio of >100) | CC[C@@H](C)Nc1ncc2c(OC3CCN(C)CC3)ncc([C@H]3CC[C@H](O)CC3)c2n1 [Compound 195] |
| 100 to 1000 | 100 to 1000 | NS (a ratio of ≤2.0) | Cc1ccc(Cl)cc1Nc1ncc2c(OC3CCNCC3)ncc([C@H]3CC[C@H](O)CC3)c2n1 [Compound 209] |
| 100 to 1000 | 100 to 1000 | + (a ratio of >2.0 and <10) | Cc1cc(Cl)ccc1Nc1ncc2c(OC3CCNCC3)ncc([C@H]3CC[C@H](O)CC3)c2n1 [Compound 198] |
| 1000 to 10000 | ≤ 100 | ++ (a ratio of between 10 and 100) | CC[C@H](C)Nc1ncc2c(=O)n(C3CCOCC3)cc([C@H]3CC[C@H](O)CC3)c2n1 [Compound 225] |

| IC50 (FLT3) [nM] | IC50 (MERTK) [nM] | Mer/Flt3 ratio (FLT3 IC50/Mer IC50) (MERTK) | SMILES |
| --- | --- | --- | --- |
| 100 to 1000 | 100 to 1000 | + (a ratio of >2.0 and <10) | O[C@H]1CC[C@H](c2cnc(OC3CCNCC3)c3cnc(N[C@@H]4CCCOC4)nc32)CC1 [Compound 232] |
| 1000 to 10000 | 1000 to 10000 | NS (a ratio of ≤2.0) | O[C@H]1CC[C@H](c2cnc(OC3CCOCC3)c3cnc(N[C@H]4CCNC4)nc32)CC1 [Compound 277] |
| 1000 to 10000 | 1000 to 10000 | ++ (a ratio of between 10 and 100) | CCOc1ncc(CC2CCN(C)CC2)c2nc(N[C@@H](C)CC)ncc12 [Compound 253] |
| ≤ 100 | ≤ 100 | ++ (a ratio of between 10 and 100) | CCCCNc1cc2c(cn1)c(OC1CCNCC1)ncc2[C@H]1CC[C@H](O)CC1 [Compound 107] |
| 1000 to 10000 | ≤ 100 | ++ (a ratio of between 10 and 100) | CCCC(C)Nc1ncc2c(O[C@@H]3CCCN(C)C3)ncc([C@H]3CC[C@H](O)CC3)c2n1 (stereo partly drawn) [Compound 214] |
| 100 to 1000 | ≤ 100 | ++ (a ratio of between 10 and 100) | CC(C)CNc1ncc2c(OC3CCNCC3)ncc([C@H]3CC[C@H](O)CC3)c2n1 [Compound 212] |
| 1000 to 10000 | 1000 to 10000 | ++ (a ratio of between 10 and 100) | CC(C)Nc1ncc2c(OC3CCOCC3)ncc(-c3cccc(CC(=O)O)c3)c2n1 [Compound 276] |
| 1000 to 10000 | 100 to 1000 | ++ (a ratio of between 10 and 100) | O[C@H]1CC[C@H](c2cnc(OC3CCNCC3)c3cnc(N[C@H]4CCCOC4)nc32)CC1 [Compound 216] |
| 100 to 1000 | ≤ 100 | +++ (a ratio of >100) | CC[C@H](C)Nc1ncc2c(OC3CCOCC3)ncc([C@H]3CC[C@H](O)CC3)c2n1 [Compound 226] |
| 1000 to 10000 | ≤ 100 | +++ (a ratio of >100) | COC[C@H](C)Nc1ncc2c(O[C@H]3CC[C@H](O)CC3)ncc([C@H]3CC[C@H](O)CC3)c2n1 [Compound 260] |
| 1000 to 10000 | ≤ 100 | +++ (a ratio of >100) | CC(C)(C)Nc1ncc2c(OC3CCNCC3)ncc([C@H]3CC[C@H](O)CC3)c2n1 [Compound 268] |
| 1000 to 10000 | ≤ 100 | ++ (a ratio of between 10 and 100) | O[C@H]1CC[C@H](c2cnc(OC3CCNCC3)c3cnc(N[C@@H]4CCOC4)nc32)CC1 [Compound 213] |
| 1000 to 10000 | 100 to 1000 | ++ (a ratio of between 10 and 100) | CC[C@H](C)Nc1ncc2c(OC(CO)CO)ncc([C@H]3CC[C@H](O)CC3)c2n1 [Compound 241] |
| 100 to 1000 | ≤ 100 | +++ (a ratio of >100) | CC[C@H](C)Nc1ncc2c(NC3CCN(C)CC3)ncc([C@H]3CC[C@H](O)CC3)c2n1 [Compound 220] |
| 100 to 1000 | ≤ 100 | ++ (a ratio of between 10 and 100) | CC[C@H](C)Nc1ncc2c(O[C@H]3CC[C@H](C(C)(C)O)CC3)ncc([C@H]3CC[C@H](O)CC3)c2n1 [Compound 261] |
